Here are results for nine molecules from ChEMBL document CHEMBL2163263, “Mechanism inspired development of rationally designed dihydrofolate reductase inhibitors as anticancer agents” (J Med Chem, 2012).

Active and inactive are the calls of the source. The calls are words filed in the database; no cut-off is given here.

The test system of one data set is COLO 205. The experiment in a line: Growth inhibition of human COLO205 cells incubated for 48 hrs by SRB assay. Conditions: COLO 205, 48 h, pooled result: one value given for 7 cell lines, strains, targets or settings. In kind it is functional.
Data set [1] has as its target T1, Dihydrofolate reductase (Homo sapiens) (UniProt P00374).
T1 sequence (whole entry): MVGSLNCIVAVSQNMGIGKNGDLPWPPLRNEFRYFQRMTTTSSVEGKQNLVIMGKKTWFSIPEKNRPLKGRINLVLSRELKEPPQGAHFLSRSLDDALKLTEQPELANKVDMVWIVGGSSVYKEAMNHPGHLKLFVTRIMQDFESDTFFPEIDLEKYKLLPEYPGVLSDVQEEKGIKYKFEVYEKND
The experiment in a line: Binding affinity to DHFR assessed as change in UV-Vis spectra at 10 uM in HEPES buffer at pH 7.2 by UV-Visible spectroscopy.

Data set [2] concerns the target T1, Dihydrofolate reductase (Homo sapiens). As to the kind of experiment: Binding affinity to DHFR by [1H]NMR spectroscopy.
Data set [3] in a line: (§1) Growth inhibition of human NCI60 cells incubated for 48 hrs by SRB assay. Format: functional. The note with it: NCI60, 48 h.
A short description of data set [4]: Total tumor growth inhibition of human NCI60 cells incubated for 48 hrs by SRB assay. The note with it: NCI60, 48 h. In kind it is functional.
Data set [5] can be described thus: Toxicity against human NCI60 cells incubated for 48 hrs by SRB assay. Format: cell-based. The note with it: nci60, 48 h.
A short description of data set [6]: Therapeutic index, ratio of LC50 for human NCI60 cells to GI50 for human NCI60 cells. In kind it is cell-based. The note with it: read-out: TI.
Data set [7] has as its target T1, Dihydrofolate reductase (Homo sapiens).
Description: Inhibition of DHFR reduction in conversion of DHF to THF in presence of NADPH by DHFR assay
A further data set concerns NCI60. The data set is described as §1. Format: functional.
The target in data set [8] is Thymidylate synthase (Homo sapiens) (UniProt P04818). The experiment in a line: Binding affinity to thymidylate synthase assessed as change in UV-Vis spectra at 10 uM in HEPES buffer at pH 7.2 by UV-Visible spectroscopy.
Chain of Thymidylate synthase (Homo sapiens) (P04818 2-313 limits assumed): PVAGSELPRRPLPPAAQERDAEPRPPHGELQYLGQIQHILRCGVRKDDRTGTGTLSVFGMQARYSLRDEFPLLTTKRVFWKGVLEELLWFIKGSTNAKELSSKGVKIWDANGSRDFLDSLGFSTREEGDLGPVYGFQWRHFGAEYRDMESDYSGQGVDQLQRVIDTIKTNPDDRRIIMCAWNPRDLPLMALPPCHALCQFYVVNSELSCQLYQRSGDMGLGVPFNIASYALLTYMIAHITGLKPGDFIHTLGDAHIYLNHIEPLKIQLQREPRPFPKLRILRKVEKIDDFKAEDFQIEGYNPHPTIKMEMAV
Data set [9] deals with T1, Dihydrofolate reductase (Homo sapiens). The experiment in a line: Binding affinity to DHFR at 32 mM by [1H]NMR spectroscopy.
The target of data set [10] is Thymidine phosphorylase (Homo sapiens) (UniProt P19971). As to the kind of experiment: Binding affinity to […] assessed as change in UV-Vis spectra at 10 uM in HEPES buffer at pH 7.2 by UV-Visible spectroscopy.
Chain of Thymidine phosphorylase (Homo sapiens) (P19971 whole entry, looked up): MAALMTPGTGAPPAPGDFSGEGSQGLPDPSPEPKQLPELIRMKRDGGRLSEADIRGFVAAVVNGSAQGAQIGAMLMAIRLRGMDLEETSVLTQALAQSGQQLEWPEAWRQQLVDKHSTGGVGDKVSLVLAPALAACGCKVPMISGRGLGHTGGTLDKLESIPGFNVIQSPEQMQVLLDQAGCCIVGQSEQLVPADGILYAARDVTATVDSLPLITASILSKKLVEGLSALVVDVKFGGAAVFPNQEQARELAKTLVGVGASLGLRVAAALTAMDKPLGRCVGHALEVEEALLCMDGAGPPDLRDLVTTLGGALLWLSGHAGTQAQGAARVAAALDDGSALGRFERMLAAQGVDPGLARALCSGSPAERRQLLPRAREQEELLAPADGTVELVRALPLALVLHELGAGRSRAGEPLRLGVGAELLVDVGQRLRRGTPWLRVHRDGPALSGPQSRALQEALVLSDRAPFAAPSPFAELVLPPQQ
Data set [11] addresses T1, Dihydrofolate reductase (Homo sapiens). As to the kind of experiment: Binding affinity to DHFR at 48 mM by [1H]NMR spectroscopy.
In a further data set the test system is NCI-H522. As to the kind of experiment: Growth inhibition of human NCI-H522 cells incubated for 48 hrs by SRB assay. In kind it is functional. Conditions: NCI-H522, 48 h.
For the next data set, the system named is UACC-257. The experiment in a line: Growth inhibition of human UACC257 cells incubated for 48 hrs by SRB assay. In kind it is functional. Conditions: UACC-257, 48 h.
For a further data set, the system named is OVCAR-3. The experiment in a line: Growth inhibition of human OVCAR3 cells incubated for 48 hrs by SRB assay. The note with it: OVCAR-3, 48 h. Format: functional.
Another data set has as its system A498. As to the kind of experiment: Growth inhibition of human A498 cells incubated for 48 hrs by SRB assay. Format: functional. Conditions: A498, 48 h.
Another data set concerns MCF7. The experiment in a line: Growth inhibition of human MCF7 cells incubated for 48 hrs by SRB assay. Format: functional. Conditions: MCF7, 48 h.
The next data set relates to Hs-578T. The experiment in a line: Growth inhibition of human Hs578T cells incubated for 48 hrs by SRB assay. Format: functional.
A further data set has as its system MDA-MB-468. As to the kind of experiment: Growth inhibition of human MDA-MB-468 cells incubated for 48 hrs by SRB assay. In kind it is functional. The note with it: MDA-MB-468, 48 h.
Data set [12] addresses T1, Dihydrofolate reductase (Homo sapiens). As to the kind of experiment: Inhibition of DHFR reduction in conversion of DHF to THF at 100 nM in presence of NADPH by DHFR assay.
Data set [13] has the same target. As to the kind of experiment: Inhibition of DHFR reduction in conversion of DHF to THF at 1 uM in presence of NADPH by DHFR assay.
Data set [14] has the same target. As to the kind of experiment: Inhibition of DHFR reduction in conversion of DHF to THF at 10 uM in presence of NADPH by DHFR assay.
Data set [15] shares this target. As to the kind of experiment: Inhibition of DHFR reduction in conversion of DHF to THF at 100 uM in presence of NADPH by DHFR assay.
Data set [16] shares this target. The experiment in a line: Inhibition of DHFR reduction in conversion of DHF to THF at 10 nM in presence of NADPH by DHFR assay.
Another data set has as its system SR. The experiment in a line: Growth inhibition of human SR cells incubated for 48 hrs by SRB assay. In kind it is functional.
Another data set in a line: cells. The note with it: Homo sapiens, NCI60, 48 h.

As to `CC1=NN(c2cccc(Cl)c2)C(=O)/C1=C\c1cn(CC(O)CN2CCCCC2)c2ccccc12` (centres undefined), the GI50 came to 1.7 µM in the data set with COLO 205 and 5.5 µM in data set [3]. For the same molecule, the outcome in data set [1] was inactive. Also, the outcome in [2] was Active. Besides, in data set [4], total growth inhibition (TGI) required 16.9 µM. In data set [5], this molecule yielded a 50% lethal concentration (LC50) of 47.8 µM. In addition, the selectivity ratio in [6] worked out at 18.4. In data set [7], this molecule returned an IC80 of 1.06 µM.

For `COc1ccc2c(c1)c(CC(=O)O)c(C)n2C(=O)c1ccc(Cl)cc1` [INDOMETHACIN], halving of growth in data set [3] (GI50) required 64.3 µM.

Consider `COc1cc(/C=C2\C(=O)N(c3cccc(Cl)c3)N=C2C)cc(OC)c1O`, for which the outcome in data set [1] and in data set [2] was inactive. Also, the “growth inhibition (GI)” value in the data set on NCI60 was “inactive”.

Consider `COc1cc(C=C2C(=O)N(C)C(=O)N(C)C2=O)cc(OC)c1O`, for which the outcome in [1] and in [2] was inactive. Also, in the data set with NCI60, the “growth inhibition (GI)” value was “inactive”.

As for `O=C1/C(=C\c2ccccn2)c2ccccc2N1c1c(Cl)cccc1Cl`, the result in data set [1] was inactive. Also, in data set [2], the result was Active. Further, halving of growth in [3] (GI50) required 2 µM. In data set [4], this molecule returned a TGI of 9.1 µM. Moreover, in data set [5], the LC50 came to 27.5 µM. In [6], the selectivity ratio was found to be 13.7.

Turning to `O=C1/C(=C\c2cn(CC(O)CN3CCCCC3)c3ccccc23)c2ccccc2N1c1c(Cl)cccc1Cl` (centres undefined), the outcome in data set [1] was inactive. Also, the outcome in data set [2] was Active. For the same molecule, growth in data set [3] was halved (GI50) at 1.8 µM. The molecule further returned a TGI in [4] of 3.2 µM. Further, in [5], the LC50 was found to be 9.1 µM. Also, the selectivity ratio in data set [6] was determined as 5.1. The 80% effect level in [7] (IC80) was put at 0.89 µM.

As to `COc1cc(/C=C2\C(=O)N(c3c(Cl)cccc3Cl)c3ccccc32)cc(OC)c1O`, the outcome in [8] and in data set [10] was inactive. Besides, the outcome in [9] was Active. Moreover, the K in data set [1] was determined as 1.6 ×10⁷ /M. Growth in data set [3] was halved (GI50) at 1.5 µM. For the same molecule, total growth inhibition in [4] (TGI) required 19.4 µM. In addition, in data set [5], the LC50 turned out to be 61.6 µM. The selectivity ratio in data set [6] worked out at 41.1. This molecule came in with an IC80 in data set [7] of 10.1 µM.

As for `CC1=NN(c2cccc(Cl)c2)C(=O)/C1=C\c1c[nH]c2ccc(Br)cc12`, in [1], the result was inactive. Besides, the result in data set [2] was Active. Besides, the 50% growth inhibitory concentration (GI50) in data set [3] was determined as 3.9 µM. In [4], this molecule displayed a TGI of 17.7 µM. Further, in [5], the LC50 amounted to 50.1 µM. Further, in data set [6], the selectivity ratio came to 12.8.

In the case of `COc1cc(/C=C2\C(=O)Nc3ccccc32)cc(OC)c1O`, the outcome in data set [11] was Active. The outcome in data set [8] and in data set [10] was inactive. The GI50 with NCI-H522, in the data set with UACC-257, in the data set on OVCAR-3, in the data set with A498, in the data set on MCF7 and with Hs-578T was 0.6 µM in each case. The GI50 amounted to 0.6 µM in the data set on MDA-MB-468, 3.5 µM in [3], 0.6 µM in the data set on SR and 0.6 µM in “cells”. The inhibition in [12], in data set [13], in data set [14], in data set [15] and in [16] was greater than 90% throughout. The same molecule returned a total growth inhibition concentration (TGI) in data set [4] of 21.4 µM. Besides, the median lethal concentration (LC50) in data set [5] worked out at 72.4 µM. In data set [7], this molecule registered a 90% effect concentration (IC90) of 1.36 µM.
